In PubChem BioAssay (NCI):
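Where inhibition never reached the appropriate level, the endpoint shown equals the highest concentration tested. Otherwise, values were interpolated linearly from a five-concentration, 48-hour dose response in 96-well plates. TGI: concentration producing complete growth inhibition.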

How the values were obtained:
Test in all cases: NCI tumour cell line growth inhibition, 48 h
[1] = tested on: A549 NSCLC
[2] = tested on: COLO 205 colon
[3] = tested on: DU-145 prostate
[4] = tested on: HCC-2998 colon
[5] = tested on: HS 578T breast
[6] = tested on: IGROV1 ovarian
[7] = tested on: KM12 colon
[8] = tested on: LOX IMVI melanoma
[9] = tested on: MCF7 breast
[10] = tested on: MDA-MB-435
[11] = tested on: NCI-H226 lung
[12] = tested on: SK-OV-3 ovarian
[13] = tested on: SNB-19 CNS
[14] = tested on: SNB-75 CNS
[15] = tested on: TK-10 renal

Row | SMILES | TGI [1] [µM] | TGI [2] [µM] | TGI [3] [µM] | TGI [4] [µM] | TGI [5] [µM] | TGI [6] [µM] | TGI [7] [µM] | TGI [8] [µM] | TGI [9] [µM] | TGI [10] [µM] | TGI [11] [µM] | TGI [12] [µM] | TGI [13] [µM] | TGI [14] [µM] | TGI [15] [µM]
1 | O=[N+]([O-])C(=C1Nc2ccccc2N1)C(Cl)=C(Cl)Cl | > 100 | > 100 | > 100 | > 100 | > 100 | > 100 | > 100 | > 100 | > 100 | > 100 | > 100 | > 100 | > 100 | 12.4 | > 100
2 | CCOC(=O)Cn1nc2ccc(Nc3nc4ccccc4nc3C(=O)OCC)cc2n1 | > 100 | > 100 | > 100 | > 100 | > 100 | > 100 | > 100 | > 100 | > 100 | > 100 | > 100 | > 100 | > 100 | 37.1 | > 100
3 | OC[C@H]1CC(c2nn[nH]n2)[C@H](O)[C@@H]1O (stereo not given in full) | > 100 | > 100 | > 100 | > 100 | > 100 | > 100 | > 100 | > 100 | > 100 | > 100 | > 100 | > 100 | > 100 | > 100 | > 100
4 | O=C1c2c(Br)sc(Br)c2[C@H]2NC(=S)O[C@@H]12 | 46.8 | 27.8 | 30.7 | 34.8 | 60 | 32 | 38.1 | 30.5 | 31.8 | 29.1 | 42.9 | 33.3 | 50.8 | 34.7 | 57.9
5 | COc1ccc(-c2nc3ccc(C)cc3o2)c(OC)c1 | > 67.4 | 40.7 | 50.5 | 45.8 | 71.4 | 76.3 | 40.4 | 31 | > 100 | 52.9 | 79.1 | > 100 | 61.4 | 54.4 | 76.5
6 | COc1cc(CNC(=O)CCCCCCCC/C=C/Br)ccc1O | > 10 | > 10 | > 10 | > 10 | > 10 | > 10 | > 10 | > 10 | > 10 | > 10 | > 10 | > 10 | > 10 | > 10 | > 10
7 | CC[C@H](CCCCC1CC[C@@H]2CC(=O)C[C@H]12)OC (stereo not given in full) | > 100 | > 100 | > 100 | > 100 | > 100 | > 100 | > 100 | > 100 | > 100 | > 100 | > 100 | > 100 | > 100 | > 100 | > 100
8 | CC(C)(C)SC1=CCC[C@@H](P(=O)(c2ccccc2)c2ccccc2)[C@@H]2CCC[C@@H]12 | 35.2 | 34.1 | 39.8 | 29.9 | 47.6 | 36 | 35.5 | 33.5 | 31.1 | 33.1 | 35.6 | 33.8 | 30.9 | 26.5 | 32.3
9 | Cc1cc(S(=O)(=O)Nc2nc(N)n(C)n2)c(S)cc1Cl | > 10 | > 10 | > 10 | > 10 | > 10 | > 10 | > 10 | > 10 | > 10 | > 10 | > 10 | > 10 | > 10 | > 10 | > 10
